Reference: PubChem BioAssay (NCI)
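All cell lines were grown in 96-well plates and treated with compound for 48 hours. Abbreviation: GI50, concentration required for 50% inhibition of growth. TGI: concentration producing complete growth inhibition.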

Legend:
Experiment in all cases: NCI-60 cell line screen, 48 h
[1] = tested on: HOP-62 NSCLC
[2] = tested on: MOLT-4 leukemia
[3] = tested on: BT-549 breast
[4] = tested on: MDA-N
[5] = tested on: OVCAR-4 ovarian
[6] = tested on: EKVX NSCLC
[7] = tested on: SN12C renal
[8] = tested on: KM12 colon
[9] = tested on: M14 melanoma
[10] = tested on: HCT-116 colon
[11] = tested on: OVCAR-8 ovarian
[12] = tested on: TK-10 renal

Row | Compound | TGI [1] [µM] | TGI [2] [µM] | TGI [3] [µM] | TGI [4] [µM] | TGI [5] [µM] | TGI [6] [µM] | TGI [7] [µM] | TGI [8] [µM] | TGI [9] [µM] | TGI [10] [µM] | TGI [11] [µM] | TGI [12] [µM] | GI50 [2] [µM] | GI50 [4] [µM]
1 | COc1ccc(/C=C2\C[C@H]3[C@@H]4CCC5=CC(=O)CC[C@]5(C)[C@H]4CC[C@]3(C)C2=O)cc1OC | > 100 | 44.6 | > 100 | > 100 | > 100 | 61.2 | > 100 | > 100 | > 100 | > 100 | > 100 |  |  | 
2 | Cc1ccc(C(=O)N/N=C(\N=Nc2ccc(C(=O)O)cc2)c2ccc(N(CCC#N)CCC#N)cc2C)cc1 | > 100 | > 100 | > 100 | > 100 | > 100 | > 100 | > 100 | > 100 | > 100 | > 100 | > 100 | > 100 |  | 
3 | O=C(N/N=C/c1ccccc1)c1cccc2nc3ccccc3nc12 | > 45.7 | > 100 | > 100 | > 100 | > 100 | > 100 | > 100 | > 100 | > 100 | > 100 | > 100 | > 100 |  | 
4 | COc1cc(OC)c2[nH]c3c(O)c(-c4c(C)cc5c([nH]c6c(OC)cc(OC)cc65)c4O)c(C)cc3c2c1 | 23.9 | 21.9 | 16.1 | 15.7 | 21.4 | 12.7 |  | 23.8 | 15.5 | 15.7 | 15.3 | 17.9 | 8.59 | 8.83
5 | Fc1ccc(C(OCCN2CC3CCC(C2)N3CCCc2ccccc2)c2ccc(F)cc2)cc1 | 21.3 | 9.01 | 24.8 | 11.8 | 16.4 | 16.4 | 13.6 | 12.2 | 6.26 | 11.3 | 5.39 | 24 |  | 
6 | CCOP(=O)(OCC)OC1c2[nH]cc(C(=O)OCc3ccccc3)c2-c2cc(C(=O)OC)[nH]c2C1OC (configuration not stated) | 36.3 | > 100 | 45.9 | > 100 | > 100 | 70.7 | > 100 | > 92.6 | > 100 | > 85.4 | > 62.8 | > 39.9 |  | 
7 | Cc1ccc(N/C(SCc2ccccc2)=C(\C(Cl)=C(Cl)Cl)[N+](=O)[O-])c(C)c1 | > 100 | > 100 | 36.5 | 65.1 | 54 | > 100 | 43.8 | > 100 | 34 | 37 | 32.7 |  |  | 
8 | CC1=C(C(=O)N[C@@H](CC(C)C)C(=O)O)N2C(=O)[C@@H](NC(=O)C(N)c3ccccc3)[C@H]2SC1 (some centres not stated) |  | > 100 | > 100 | > 100 | > 100 | > 100 | > 100 | > 100 | > 100 |  | > 100 | > 100 |  | 
9 | N#Cc1c(O)c(/C=N/c2ncccn2)c(=O)n2c1[nH]c1ccccc12 |  | > 100 | > 100 | > 100 | > 100 | > 100 | > 100 | > 100 | > 100 | > 100 | > 100 | > 100 |  | 
10 | O=C(N/N=C(/COc1ccccc1)N=Cc1cccnc1)c1ccncc1 | > 100 | > 100 | > 100 | > 100 | > 100 | > 100 | > 100 | > 100 | > 100 | > 100 | > 100 | > 100 |  | 
11 | COC(=O)/C=C1/OC(c2ccc(OC)cc2)=C(Cl)C1=O | 39.2 | 12.3 | 26.3 | 32.7 | 30.1 | 39.4 | 40.4 | 36.4 | 35.4 | 26.5 | 28.2 | 40.1 |  | 
12 | O=C(OCCNC(=O)N1CC1)OCCNC(=O)N1CC1 | > 10 | > 10 | > 10 | > 10 | > 10 | > 10 | > 10 | > 10 | > 10 | > 10 | > 10 | > 10 |  | 
13 | Cc1cccc(N/C(Sc2ccccc2)=C(/C(Cl)=C(Cl)Cl)[N+](=O)[O-])c1 | 40.1 | > 100 | 41.8 | 45.8 | 38.6 | 42.7 | 35.1 | 48.6 | 36.7 | 28.7 | 29.6 |  |  | 
14 | CCOC(=O)NN(C(=O)OCC)c1c(C)cc(C)cc1C |  | > 100 | > 100 | > 100 | > 100 | > 100 | > 100 | > 100 | > 100 | > 100 | > 100 | > 100 |  | 
15 | Cc1ccc2c(/C=C/c3ccc(N(C)C)cc3)ccc(C(C)C)cc1-2 | > 100 | > 100 | > 100 | > 100 |  | > 100 | > 100 | > 100 | > 100 | > 100 | > 100 | > 100 |  | 
16 | CN1CC2CN(Cc3ccccc3)CCN2c2cccnc21 (configuration not stated) | > 100 | > 100 | > 100 | > 100 | > 100 | > 100 |  | 89.1 | > 100 | 37.7 | > 100 | > 100 |  | 
17 | CC(=O)OC(Cc1c(O)c2c(C)cccc2oc1=O)C(C)(C)O (configuration not stated) | > 100 | > 100 | > 100 | > 100 |  | > 100 | > 100 | > 100 | > 100 | > 100 | > 100 | > 100 |  | 
18 | Cn1c(N)nc(-c2ccc(Cl)cc2)c1SSc1c(-c2ccc(Cl)cc2)nc(N)n1C | 7.69 | > 100 | 5.19 | 3.34 | 3.21 | 6.47 |  | 3.46 | 3.78 | 13.4 | 5.81 | 3.32 |  | 
19 | CSc1nc2c(c(=O)[nH]1)N=C(c1ccccc1)CC(c1ccccc1)N2 (configuration not stated) | > 100 | 59.6 | > 100 | 46.6 | 95.2 | > 100 | 56.6 | 29.2 | > 100 | 97.5 | > 100 |  |  | 
